Test results reported in ChEMBL document CHEMBL5678809, “Preclinical characterization of GLPG0634, a selective inhibitor of JAK1, for the treatment of inflammatory diseases” (J Immunol, 2013).
The source made the active and inactive calls. The rule behind the calls is not given here.

Legend:
[1] = Cmax in CD-1 mouse at 1 mg/kg, iv measured upto 8 hrs by LC-MS analysis; type: ADME, organism-based; conditions: in vivo
RPMI-8226 = experiment: Inhibition of human […] cell differentiation assessed as effect on IL-4 mRNA expression at 0.1 to 1 uM by RT-PCR analysis; type: functional, cell-based; conditions: dose 0.1-1 µM
[2] = target: Serine/threonine-protein kinase 24 (Homo sapiens) (UniProt Q9Y6E0); experiment: Inhibition of MST3 (unknown origin) at 1 uM relative to control
[3] = target: Mitogen-activated protein kinase kinase kinase kinase 2 (Homo sapiens, UniProt Q12851); experiment: Inhibition of GCK (unknown origin)
Mus musculus [4] = experiment: Antiarthritic activity against collagen-induced arthritis DBA/1J mouse model assessed as reduction in MCP-1 level in serum at 50 mg/kg, po measured for 4 hrs by luminex analysis; type: functional, organism-based
[5] = target: Serine/threonine-protein kinase N2 (Homo sapiens) (UniProt Q16513); experiment: Inhibition of PRK2 (unknown origin) at 1 uM relative to control
[6] = target: Proto-oncogene tyrosine-protein kinase Src (Homo sapiens) (UniProt P12931); experiment: Inhibition of Src (unknown origin) (1 to 530 residues) at 1 uM relative to control
[7] = target: RAF proto-oncogene serine/threonine-protein kinase (Homo sapiens) (UniProt P04049); experiment: Inhibition of c-RAF (unknown origin) at 1 uM relative to control
Mus musculus [8] = experiment: Antiarthritic activity against collagen-induced arthritis DBA/1J mouse model assessed as reduction in MX2 level in whole blood at 50 mg/kg, po measured for 2 weeks by luminex analysis; type: functional, organism-based
[9] = AUC (0 to 24 hrs) in Sprague-Dawley rat at 5 mg/kg, po measured upto 24 hrs by LC-MS analysis; type: ADME, organism-based; conditions: in vivo
[10] = target: Serine/threonine-protein kinase WNK2 (Homo sapiens) (UniProt Q9Y3S1); experiment: Inhibition of WNK2 (unknown origin) at 1 uM relative to control
[11] = target: Protein kinase C delta type (Homo sapiens) (UniProt Q05655); experiment: Inhibition of PKCd (unknown origin) at 1 uM relative to control
[12] = target: Serine/threonine-protein kinase DCLK2 (Homo sapiens) (UniProt Q8N568); experiment: Inhibition of DCAMKL2 (unknown origin) at 1 uM relative to control
[13] = target: Ribosomal protein S6 kinase alpha-5 (Homo sapiens) (UniProt O75582); experiment: Inhibition of MSK1 (unknown origin) at 1 uM relative to control
[14] = target: Hepatocyte growth factor receptor (Homo sapiens) (UniProt P08581); experiment: Inhibition of Met (unknown origin) at 1 uM relative to control
Mus musculus [15] = experiment: Antiarthritic activity against collagen-induced arthritis DBA/1J mouse model assessed as KC/GRO level in serum at 50 mg/kg, po measured for 4 hrs by luminex analysis (reference value: 73.6 +/- 18.6 ng/ml); type: functional
[16] = target: Calcium/calmodulin-dependent protein kinase type IV (Homo sapiens) (UniProt Q16566); experiment: Inhibition of CaMK4 (unknown origin) at 1 uM relative to control
Rattus norvegicus [17] = experiment: Antiarthritic activity against collagen-induced arthritis Dark Agouti rat model assessed as reduction in inflammatory infiltration at 1 mg/kg, po administered 3 times a week and measured on day 7; type: functional, organism-based; conditions: time 7.0 day
[18] = target: Dual specificity mitogen-activated protein kinase kinase 1 (Homo sapiens) (UniProt Q02750); experiment: Inhibition of MEK1 (unknown origin) at 1 uM relative to control
[19] = target: Serine/threonine-protein kinase D1 (Homo sapiens) (UniProt Q15139); experiment: Inhibition of PKC-mu (unknown origin) at 1 uM relative to control
[20] = target: Focal adhesion kinase 1 (Homo sapiens) (UniProt Q05397); experiment: Inhibition of FAK (unknown origin) at 1 uM relative to control
[21] = target: Ribosomal protein S6 kinase alpha-3 (Homo sapiens) (UniProt P51812); experiment: Inhibition of Rsk2 (unknown origin) at 1 uM relative to control
[22] = target: Interleukin-1 receptor-associated kinase 1 (Homo sapiens) (UniProt P51617); experiment: Inhibition of IRAK1 (unknown origin) at 1 uM relative to control
[23] = target: Serine/threonine-protein kinase WNK3 (Homo sapiens) (UniProt Q9BYP7); experiment: Inhibition of WNK3 (unknown origin) at 1 uM relative to control
[24] = target: Tyrosine-protein kinase CSK (Homo sapiens) (UniProt P41240); experiment: Inhibition of CSK (unknown origin) at 1 uM relative to control
[25] = Clearance in CD-1 mouse at 1 mg/kg, iv measured upto 8 hrs by LC-MS analysis; type: ADME, organism-based; conditions: in vivo
[26] = target: Tyrosine-protein kinase ITK/TSK (Homo sapiens) (UniProt Q08881); experiment: Inhibition of Itk (unknown origin) at 1 uM relative to control
[27] = target: Dual specificity protein kinase CLK2 (Homo sapiens) (UniProt P49760); experiment: Inhibition of CLK2 (unknown origin) at 1 uM relative to control
[28] = target: SRSF protein kinase 3 (Homo sapiens) (UniProt Q9UPE1); experiment: Inhibition of MSSK1 (unknown origin) at 1 uM relative to control
[29] = target: Tyrosine-protein kinase receptor TYRO3 (Homo sapiens) (UniProt Q06418); experiment: Inhibition of Rse (unknown origin) at 1 uM relative to control
Mus musculus [30] = experiment: Antiarthritic activity against collagen-induced arthritis DBA/1J mouse model assessed as reduction in XCL1 level in serum at 50 mg/kg, po measured for 4 hrs by luminex analysis; type: functional, organism-based
[31] = target: Homeodomain-interacting protein kinase 1 (Homo sapiens) (UniProt Q86Z02); experiment: Inhibition of HIPK1 (unknown origin) at 1 uM relative to control
[32] = target: Serine/threonine-protein kinase PAK 2 (Homo sapiens) (UniProt Q13177); experiment: Inhibition of PAK2 (unknown origin) at 1 uM relative to control
Rattus norvegicus [33] = experiment: Antiarthritic activity against collagen-induced arthritis Dark Agouti rat model assessed as reduction in clinical score at 0.1 mg/kg, po measured after day 5; type: functional, organism-based; conditions: time 5.0 day
BaF3 = experiment: Antiproliferative activity against mouse BaF3 cells assessed as IL-3-induced inhibition of cell growth incubated for 40 hrs; type: functional, cell-based; conditions: BaF3, 40 h
[34] = target: Dual specificity tyrosine-phosphorylation-regulated kinase 2 (Homo sapiens) (UniProt Q92630); experiment: Inhibition of DYRK2 (unknown origin) at 1 uM relative to control
Aurora kinase B = Aurora kinase B (Homo sapiens, UniProt Q96GD4); experiment: Inhibition of AURORA-B (unknown origin)
Mus musculus [35] = experiment: Antiarthritic activity against collagen-induced arthritis DBA/1J mouse model assessed as reduction in MMP13 expression at 50 mg/kg, po measured for 4 hrs; type: functional, organism-based
[36] = AUC (0 to 24 hrs) in Sprague-Dawley rat at 1 mg/kg, iv measured upto 8 hrs by LC-MS analysis; type: ADME, organism-based; conditions: in vivo
[37] = target: Proto-oncogene tyrosine-protein kinase Src (Homo sapiens) (UniProt P12931); experiment: Inhibition of SRC (unknown origin) at 1 uM relative to control

Proto-oncogene tyrosine-protein kinase Src (Homo sapiens), sequence (P12931 2-536 limits assumed): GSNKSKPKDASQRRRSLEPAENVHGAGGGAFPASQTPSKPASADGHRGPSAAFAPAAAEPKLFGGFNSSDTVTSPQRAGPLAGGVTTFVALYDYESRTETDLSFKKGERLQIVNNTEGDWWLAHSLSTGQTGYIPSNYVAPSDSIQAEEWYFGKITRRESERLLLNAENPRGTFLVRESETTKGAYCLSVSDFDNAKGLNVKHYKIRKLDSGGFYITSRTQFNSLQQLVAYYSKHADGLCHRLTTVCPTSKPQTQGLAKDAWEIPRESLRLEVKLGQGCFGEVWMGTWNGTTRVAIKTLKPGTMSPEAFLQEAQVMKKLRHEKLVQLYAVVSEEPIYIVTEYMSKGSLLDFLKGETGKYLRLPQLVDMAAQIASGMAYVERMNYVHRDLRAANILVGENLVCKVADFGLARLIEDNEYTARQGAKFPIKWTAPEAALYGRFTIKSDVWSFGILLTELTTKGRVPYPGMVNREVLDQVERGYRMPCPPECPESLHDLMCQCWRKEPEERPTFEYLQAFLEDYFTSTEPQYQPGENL
Serine/threonine-protein kinase DCLK2 (Homo sapiens), sequence (Q8N568 whole entry): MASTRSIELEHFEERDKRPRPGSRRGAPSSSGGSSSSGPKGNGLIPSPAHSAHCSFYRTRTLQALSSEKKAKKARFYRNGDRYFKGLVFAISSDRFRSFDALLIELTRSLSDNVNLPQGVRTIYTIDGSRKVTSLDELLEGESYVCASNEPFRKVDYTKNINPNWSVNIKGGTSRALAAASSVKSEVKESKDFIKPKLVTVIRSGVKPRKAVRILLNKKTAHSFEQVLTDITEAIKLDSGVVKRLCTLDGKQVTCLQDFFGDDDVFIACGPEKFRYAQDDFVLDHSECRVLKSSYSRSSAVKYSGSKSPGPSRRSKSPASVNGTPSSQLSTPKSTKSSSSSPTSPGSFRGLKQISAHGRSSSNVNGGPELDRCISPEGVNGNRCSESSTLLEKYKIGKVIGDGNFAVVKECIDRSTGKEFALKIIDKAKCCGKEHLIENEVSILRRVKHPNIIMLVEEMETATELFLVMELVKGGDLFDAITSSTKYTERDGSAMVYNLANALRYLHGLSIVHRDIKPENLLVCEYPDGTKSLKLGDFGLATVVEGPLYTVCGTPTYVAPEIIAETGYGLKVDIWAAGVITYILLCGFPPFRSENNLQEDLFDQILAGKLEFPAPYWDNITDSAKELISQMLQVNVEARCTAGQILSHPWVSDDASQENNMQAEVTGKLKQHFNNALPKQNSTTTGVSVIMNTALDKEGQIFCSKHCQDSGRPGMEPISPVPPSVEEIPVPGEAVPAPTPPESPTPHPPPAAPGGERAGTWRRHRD
Mitogen-activated protein kinase kinase kinase kinase 2, sequence (Q12851 whole entry): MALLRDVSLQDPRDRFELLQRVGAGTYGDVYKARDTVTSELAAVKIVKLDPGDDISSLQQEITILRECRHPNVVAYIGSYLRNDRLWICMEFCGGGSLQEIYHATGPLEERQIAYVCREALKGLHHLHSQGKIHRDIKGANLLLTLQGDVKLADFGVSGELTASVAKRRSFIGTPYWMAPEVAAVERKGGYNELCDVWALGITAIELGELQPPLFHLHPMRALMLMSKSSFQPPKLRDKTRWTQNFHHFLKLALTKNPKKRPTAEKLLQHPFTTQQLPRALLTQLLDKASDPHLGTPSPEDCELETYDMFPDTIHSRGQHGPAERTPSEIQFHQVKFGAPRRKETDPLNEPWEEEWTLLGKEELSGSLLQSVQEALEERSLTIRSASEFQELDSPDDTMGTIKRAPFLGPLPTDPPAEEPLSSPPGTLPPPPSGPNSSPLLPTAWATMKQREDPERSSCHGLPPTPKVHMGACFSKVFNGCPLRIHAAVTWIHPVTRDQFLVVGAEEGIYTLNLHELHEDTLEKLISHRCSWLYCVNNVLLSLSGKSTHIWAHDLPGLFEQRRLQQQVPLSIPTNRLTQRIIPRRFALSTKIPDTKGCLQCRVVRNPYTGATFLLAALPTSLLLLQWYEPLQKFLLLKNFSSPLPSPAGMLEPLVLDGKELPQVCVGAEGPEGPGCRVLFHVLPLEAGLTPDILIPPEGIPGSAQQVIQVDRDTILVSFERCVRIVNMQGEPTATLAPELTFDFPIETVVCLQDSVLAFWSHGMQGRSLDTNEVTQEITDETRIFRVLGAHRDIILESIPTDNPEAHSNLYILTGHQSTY
Tyrosine-protein kinase CSK (Homo sapiens), sequence (P41240 2-450 limits assumed): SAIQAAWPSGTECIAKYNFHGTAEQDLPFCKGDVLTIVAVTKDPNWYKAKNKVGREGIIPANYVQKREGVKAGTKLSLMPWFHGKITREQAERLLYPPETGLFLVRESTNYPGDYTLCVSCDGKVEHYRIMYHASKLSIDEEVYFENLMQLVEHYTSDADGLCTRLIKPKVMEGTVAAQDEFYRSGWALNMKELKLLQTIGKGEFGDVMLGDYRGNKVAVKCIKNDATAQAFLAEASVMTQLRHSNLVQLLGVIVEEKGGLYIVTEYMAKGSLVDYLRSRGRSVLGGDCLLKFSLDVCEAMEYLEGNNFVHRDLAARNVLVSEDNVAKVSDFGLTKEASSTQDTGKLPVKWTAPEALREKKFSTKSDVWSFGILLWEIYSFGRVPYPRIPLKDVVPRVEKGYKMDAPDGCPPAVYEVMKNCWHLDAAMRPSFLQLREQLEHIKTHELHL
Serine/threonine-protein kinase N2 (Homo sapiens), sequence (Q16513 whole entry, looked up, the tested form may be a part): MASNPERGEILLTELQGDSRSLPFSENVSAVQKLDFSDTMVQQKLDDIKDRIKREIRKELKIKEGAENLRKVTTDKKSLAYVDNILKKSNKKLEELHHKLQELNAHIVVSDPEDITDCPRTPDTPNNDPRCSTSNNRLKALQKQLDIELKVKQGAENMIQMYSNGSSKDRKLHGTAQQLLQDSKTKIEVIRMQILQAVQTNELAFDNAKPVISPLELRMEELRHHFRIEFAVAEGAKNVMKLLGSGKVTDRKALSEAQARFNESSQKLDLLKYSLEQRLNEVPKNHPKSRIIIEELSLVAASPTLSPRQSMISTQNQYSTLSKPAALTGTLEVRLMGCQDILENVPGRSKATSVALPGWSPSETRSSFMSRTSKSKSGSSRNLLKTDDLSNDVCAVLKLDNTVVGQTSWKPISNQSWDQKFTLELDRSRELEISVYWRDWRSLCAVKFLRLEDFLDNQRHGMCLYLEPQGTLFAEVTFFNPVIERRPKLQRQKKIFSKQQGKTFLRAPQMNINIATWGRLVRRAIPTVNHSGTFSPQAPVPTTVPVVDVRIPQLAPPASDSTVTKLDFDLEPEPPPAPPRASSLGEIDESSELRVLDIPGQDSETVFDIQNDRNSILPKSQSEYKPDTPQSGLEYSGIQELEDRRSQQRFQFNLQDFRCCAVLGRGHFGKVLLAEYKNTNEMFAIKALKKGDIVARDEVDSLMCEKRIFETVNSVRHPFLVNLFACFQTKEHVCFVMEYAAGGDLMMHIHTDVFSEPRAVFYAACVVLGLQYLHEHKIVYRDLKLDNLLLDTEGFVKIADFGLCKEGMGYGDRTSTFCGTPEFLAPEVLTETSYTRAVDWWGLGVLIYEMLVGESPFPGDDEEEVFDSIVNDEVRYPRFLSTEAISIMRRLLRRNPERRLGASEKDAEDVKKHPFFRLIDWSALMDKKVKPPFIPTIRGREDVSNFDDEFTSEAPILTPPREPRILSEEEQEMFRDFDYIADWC
Focal adhesion kinase 1 (Homo sapiens), sequence (Q05397 2-1052 limits assumed): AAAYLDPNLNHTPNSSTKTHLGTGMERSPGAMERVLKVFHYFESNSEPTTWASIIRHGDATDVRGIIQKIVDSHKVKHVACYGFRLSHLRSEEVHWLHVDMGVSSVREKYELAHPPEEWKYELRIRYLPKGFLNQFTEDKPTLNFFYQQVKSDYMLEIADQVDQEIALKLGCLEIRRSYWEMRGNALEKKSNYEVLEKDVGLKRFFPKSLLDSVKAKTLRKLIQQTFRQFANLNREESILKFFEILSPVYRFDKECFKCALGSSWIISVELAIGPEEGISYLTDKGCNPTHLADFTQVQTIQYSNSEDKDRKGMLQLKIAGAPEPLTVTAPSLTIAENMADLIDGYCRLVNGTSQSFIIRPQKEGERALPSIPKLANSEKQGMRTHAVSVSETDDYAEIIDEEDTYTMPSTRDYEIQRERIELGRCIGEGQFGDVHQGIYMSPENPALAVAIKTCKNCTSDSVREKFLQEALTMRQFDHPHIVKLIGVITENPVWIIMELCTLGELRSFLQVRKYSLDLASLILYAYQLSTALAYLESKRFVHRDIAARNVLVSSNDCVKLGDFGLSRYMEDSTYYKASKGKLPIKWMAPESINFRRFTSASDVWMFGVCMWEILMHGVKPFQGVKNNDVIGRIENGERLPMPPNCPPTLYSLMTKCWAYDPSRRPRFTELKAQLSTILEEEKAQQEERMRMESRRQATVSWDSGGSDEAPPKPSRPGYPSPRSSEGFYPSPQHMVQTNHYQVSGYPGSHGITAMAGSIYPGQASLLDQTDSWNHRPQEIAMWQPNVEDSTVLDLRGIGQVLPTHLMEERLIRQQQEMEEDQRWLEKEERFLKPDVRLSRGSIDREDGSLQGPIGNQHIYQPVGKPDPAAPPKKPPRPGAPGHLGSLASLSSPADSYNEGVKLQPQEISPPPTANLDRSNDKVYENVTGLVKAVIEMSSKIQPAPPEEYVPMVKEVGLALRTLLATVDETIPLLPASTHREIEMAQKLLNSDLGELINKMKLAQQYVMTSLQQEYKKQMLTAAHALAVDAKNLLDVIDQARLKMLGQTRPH
Dual specificity mitogen-activated protein kinase kinase 1 (Homo sapiens), sequence (Q02750 whole entry): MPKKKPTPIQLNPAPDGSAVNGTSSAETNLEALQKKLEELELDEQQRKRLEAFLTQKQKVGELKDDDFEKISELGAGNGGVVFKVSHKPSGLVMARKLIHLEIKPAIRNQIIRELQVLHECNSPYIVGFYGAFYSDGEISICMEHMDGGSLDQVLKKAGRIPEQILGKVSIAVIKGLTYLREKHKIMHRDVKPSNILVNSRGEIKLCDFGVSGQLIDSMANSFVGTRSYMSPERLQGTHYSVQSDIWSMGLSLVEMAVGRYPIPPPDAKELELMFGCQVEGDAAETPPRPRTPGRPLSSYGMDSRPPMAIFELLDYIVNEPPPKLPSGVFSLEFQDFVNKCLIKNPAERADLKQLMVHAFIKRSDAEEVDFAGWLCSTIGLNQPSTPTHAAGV

Q: For `O=C(Nc1nc2cccc(-c3ccc(CN4CCS(=O)(=O)CC4)cc3)n2n1)C1CC1` [FILGOTINIB], which Cmax [1] is on record?
A: 637 ng/mL

Q: And the inhibition (RPMI-8226)?
A: Active

Q: And the inhibition [2]?
A: 0%

Q: What about the IC50 [3] of the same compound?
A: > 10 µM

Q: What about the Activity (Mus musculus [4]) of the same compound?
A: Active

Q: What about the inhibition [5] of the same compound?
A: -8%

Q: And the inhibition [6]?
A: 32%

Q: What about the inhibition [7] of the same compound?
A: -4%

Q: What about the Activity (Mus musculus [8]) of the same compound?
A: inactive

Q: And the AUC [9]?
A: 1680 ng·h/mL

Q: What about the inhibition [10] of the same compound?
A: -1%

Q: What about the inhibition [11] of the same compound?
A: -10%

Q: What about the inhibition [12] of the same compound?
A: 12%

Q: And the inhibition [13]?
A: -1%

Q: And the inhibition [14]?
A: -3%

Q: What about the Activity (Mus musculus [15]) of the same compound?
A: 33.6 ng/mL

Q: And the inhibition [16]?
A: -5%

Q: What about the Activity (Rattus norvegicus [17]) of the same compound?
A: Active

Q: What about the inhibition [18] of the same compound?
A: -3%

Q: And the inhibition [19]?
A: -10%

Q: And the inhibition [20]?
A: 23%

Q: What about the inhibition [21] of the same compound?
A: 1%

Q: And the inhibition [22]?
A: 2%

Q: And the inhibition [23]?
A: -2%

Q: What about the inhibition [24] of the same compound?
A: 3%

Q: What about the clearance [25] of the same compound?
A: 48.3 mL/min/kg

Q: And the inhibition [26]?
A: -4%

Q: What about the inhibition [27] of the same compound?
A: 10%

Q: What about the inhibition [28] of the same compound?
A: 2%

Q: And the inhibition [29]?
A: 4%

Q: What about the Activity (Mus musculus [30]) of the same compound?
A: Active

Q: What about the inhibition [31] of the same compound?
A: -8%

Q: What about the inhibition [32] of the same compound?
A: 3%

Q: What about the Activity (Rattus norvegicus [33]) of the same compound?
A: Active

Q: And the IC50 (BaF3; read-out: IC50)?
A: 4.55 µM

Q: And the IC50 (BaF3; read-out: pIC50 (converted))?
A: 4.57 µM

Q: What about the inhibition [34] of the same compound?
A: -1%

Q: And the IC50 (Aurora kinase B)?
A: > 10 µM

Q: What about the Activity (Mus musculus [35]) of the same compound?
A: Active

Q: What about the AUC [36] of the same compound?
A: 739 ng·h/mL

Q: And the inhibition [37]?
A: -10%
